Our source for the TGI and GI50 values is PubChem BioAssay (NCI).

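Protocol summary: plate cells (96-well), add compound at 5 concentrations, incubate 48 h, interpolate endpoints linearly. GI50 is the concentration that inhibits growth by half. TGI denotes the concentration required for complete inhibition of growth.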

Some test systems named below: COLO 205 colon; KM12 colon; M14 melanoma; RPMI-8226 leukemia; SF-539 CNS; SK-OV-3 ovarian; SN12C renal; UACC-257 melanoma.
Holding throughout (test): DTP human tumour cell line panel, 48 h

Regarding `CC/C=C1\N=C(c2ccc(Cl)cc2)OC1=O`, the TGI with COLO 205 colon, in the assay with KM12 colon, in the assay on M14 melanoma, in the assay with RPMI-8226 leukemia, in the assay with SF-539 CNS and in the assay with SK-OV-3 ovarian was over 100 µM in each case. Moreover, the TGI with SN12C renal and in the assay with UACC-257 melanoma was over 100 µM in each case.
As for `COc1ccc(/C=C2\CCCCC2=O)cc1`, the TGI in the assay on COLO 205 colon, in the assay on M14 melanoma, in the assay with SF-539 CNS, with SK-OV-3 ovarian and in the assay with SN12C renal was over 100 µM each time.
As to `CCn1cc(/C=C/C(C)c2cn(CC)c(=O)[nH]c2=O)c(=O)[nH]c1=O` (configuration not stated), the total growth inhibition concentration (TGI) with COLO 205 colon, in the assay on KM12 colon, in the assay with M14 melanoma, in the assay with RPMI-8226 leukemia, in the assay with SF-539 CNS and in the assay with SK-OV-3 ovarian was over 100 µM throughout. The total growth inhibition concentration (TGI) in the assay with SN12C renal and in the assay on UACC-257 melanoma was over 100 µM throughout.
On to `CCC[CH2][Sn]([CH2]CCC)([O]C(=O)c1cc(F)cc(F)c1)[O]C(=O)c1cc(F)cc(F)c1`, for which the GI50 (in general, the concentration at which growth is held to half of that of the control) with COLO 205 colon is 0.841 µM; in the assay on KM12 colon it was 1.63 µM; in the assay with M14 melanoma, 1.36 µM; with SF-539 CNS it was 1.52 µM; in the assay with SK-OV-3 ovarian it was 2.45 µM; in the assay with SN12C renal it was 1.35 µM. The GI50 in the assay on UACC-257 melanoma is 1.09 µM. In addition, the TGI (commonly the concentration at which net growth stops) came to 2.05 µM in the assay with COLO 205 colon; 3 µM with KM12 colon; 2.67 µM in the assay on M14 melanoma; 2.89 µM in the assay with SF-539 CNS; 5.45 µM in the assay on SK-OV-3 ovarian; 2.68 µM with SN12C renal. The same molecule had a total growth inhibition concentration (TGI) with UACC-257 melanoma of 2.28 µM.
Regarding `COC1=CC(O)(CC(N)=O)c2ccccc2C1=O` (configuration not stated), the TGI in the assay with COLO 205 colon, with KM12 colon, in the assay with M14 melanoma, with RPMI-8226 leukemia, in the assay with SK-OV-3 ovarian and in the assay on SN12C renal was over 100 µM each time. The same molecule displayed a TGI in the assay on UACC-257 melanoma of over 100 µM.
As for `Cc1ccc(-c2nc(SCC(=O)O)n[nH]2)cc1`, the total growth inhibition concentration (TGI) in the assay on COLO 205 colon, in the assay on KM12 colon, in the assay with M14 melanoma, in the assay with RPMI-8226 leukemia, with SF-539 CNS and in the assay on SK-OV-3 ovarian was over 100 µM in each case. Further, the TGI in the assay on SN12C renal and in the assay on UACC-257 melanoma was over 100 µM throughout.
In the case of `CC(=O)C1CC=C(C)CC1` (configuration not stated), the TGI in the assay with COLO 205 colon, in the assay on KM12 colon, in the assay on M14 melanoma, in the assay on RPMI-8226 leukemia, in the assay on SF-539 CNS and in the assay with SK-OV-3 ovarian was over 100 µM throughout. Moreover, the TGI in the assay on SN12C renal and in the assay with UACC-257 melanoma was over 100 µM throughout.
In the case of `COc1ccc(C2=NNC(=O)OC2c2ccccc2)cc1` (configuration not stated), the TGI in the assay on COLO 205 colon, in the assay with KM12 colon, in the assay on M14 melanoma, in the assay with RPMI-8226 leukemia, with SF-539 CNS and in the assay with SN12C renal was over 100 µM in each case. In addition, in the assay with UACC-257 melanoma, the TGI is over 100 µM.
Turning to `Brc1ccc(-c2nnc(-c3nn(-c4ccccc4)c4nc5ccccc5nc34)o2)cc1`, the TGI with COLO 205 colon, in the assay on KM12 colon, in the assay on M14 melanoma, in the assay on RPMI-8226 leukemia, in the assay on SF-539 CNS and in the assay with SK-OV-3 ovarian was over 100 µM each time. The TGI in the assay on SN12C renal and in the assay on UACC-257 melanoma was over 100 µM throughout.
With `O=C(CC1(O)C(=O)Nc2ccccc21)c1ccccc1Cl` (configuration not stated), the TGI in the assay on COLO 205 colon, in the assay on M14 melanoma, with RPMI-8226 leukemia, in the assay on SF-539 CNS, in the assay on SK-OV-3 ovarian and in the assay on SN12C renal was over 100 µM throughout. Besides, the TGI in the assay on UACC-257 melanoma was over 100 µM.
For `CSC(C1c2ccccc2N(C)C2=NC(=O)N(C)C(=O)C21Cl)S(=O)(=O)c1ccc(C)cc1` (configuration not stated), the TGI in the assay with COLO 205 colon was over 100 µM; in the assay with KM12 colon, over 100 µM; in the assay with RPMI-8226 leukemia, 57.8 µM; in the assay with SF-539 CNS, over 100 µM; in the assay with SK-OV-3 ovarian it was over 100 µM; with SN12C renal, over 100 µM. The molecule also returned a TGI with UACC-257 melanoma of over 100 µM.
Take `Cn1c2c(c3ccccc31)C1CCCCC1C1C(=O)NC(=O)C21` (configuration not stated): the TGI in the assay on COLO 205 colon, in the assay on KM12 colon, with M14 melanoma, in the assay on RPMI-8226 leukemia, in the assay with SF-539 CNS and in the assay on SK-OV-3 ovarian was over 100 µM in each case. In the assay with SN12C renal, this molecule yielded a TGI of over 100 µM.
In the case of `COc1ccc(C(O)/C(=N\NC(N)=S)c2nc3ccc([N+](=O)[O-])cc3[nH]c2=O)cc1OC` (configuration not stated), the TGI in the assay with COLO 205 colon, with KM12 colon, in the assay with M14 melanoma, in the assay on RPMI-8226 leukemia, in the assay with SK-OV-3 ovarian and with UACC-257 melanoma was over 100 µM each time.
Regarding `COC1(OC)CC2C=C(S(=O)(=O)c3ccccc3)C1N(Cc1ccccc1)C2=O` (configuration not stated), the TGI was 43.4 µM with COLO 205 colon; 92.3 µM in the assay with KM12 colon; 67.1 µM with M14 melanoma; 44.9 µM in the assay with SF-539 CNS; over 100 µM with SK-OV-3 ovarian; 68.2 µM with SN12C renal. The molecule further came in with a TGI in the assay with UACC-257 melanoma of over 100 µM.
